Assay results from patent US20130029967A1, “Fused Imidazo [3,2 - D] Pyrazines as P13 Kinase Inhibitors” (Centro Nacional de Investigaciones Oncologicas (CNIO), priority 2009, published 2013).

Target: T1, PI3K (p110α/p85α) (Homo sapiens, UniProt P42336)
T1 construct: purchased Carna Biosciences 07CBS-0402A
Experiment: PI3K activity assay (ADP Hunter Plus)
Assay type: biochemical
Conditions: PI3Kα; class symbols; read-out: PI3K α IC50 (semi-quantitative)
Protocol: The kinase activity was measured by using the commercial ADP Hunter™ Plus assay available from DiscoveRx (#33-016), which is a homogeneous assay to measure the accumulation of ADP, a universal product of kinase activity. […] Reaction was carried out for 1 hour at 25° C. Reagent A and B were sequentially added to the wells and plates were incubated for 30 min at 37° C. […] Values were normalized against the control activity included for each enzyme (i.e., 100% PI3 kinase activity, without compound). These values were plot against the inhibitor concentration and were fit to a sigmoid dose-response curve by using the Graphed software.

T1 sequence (P42336 whole entry): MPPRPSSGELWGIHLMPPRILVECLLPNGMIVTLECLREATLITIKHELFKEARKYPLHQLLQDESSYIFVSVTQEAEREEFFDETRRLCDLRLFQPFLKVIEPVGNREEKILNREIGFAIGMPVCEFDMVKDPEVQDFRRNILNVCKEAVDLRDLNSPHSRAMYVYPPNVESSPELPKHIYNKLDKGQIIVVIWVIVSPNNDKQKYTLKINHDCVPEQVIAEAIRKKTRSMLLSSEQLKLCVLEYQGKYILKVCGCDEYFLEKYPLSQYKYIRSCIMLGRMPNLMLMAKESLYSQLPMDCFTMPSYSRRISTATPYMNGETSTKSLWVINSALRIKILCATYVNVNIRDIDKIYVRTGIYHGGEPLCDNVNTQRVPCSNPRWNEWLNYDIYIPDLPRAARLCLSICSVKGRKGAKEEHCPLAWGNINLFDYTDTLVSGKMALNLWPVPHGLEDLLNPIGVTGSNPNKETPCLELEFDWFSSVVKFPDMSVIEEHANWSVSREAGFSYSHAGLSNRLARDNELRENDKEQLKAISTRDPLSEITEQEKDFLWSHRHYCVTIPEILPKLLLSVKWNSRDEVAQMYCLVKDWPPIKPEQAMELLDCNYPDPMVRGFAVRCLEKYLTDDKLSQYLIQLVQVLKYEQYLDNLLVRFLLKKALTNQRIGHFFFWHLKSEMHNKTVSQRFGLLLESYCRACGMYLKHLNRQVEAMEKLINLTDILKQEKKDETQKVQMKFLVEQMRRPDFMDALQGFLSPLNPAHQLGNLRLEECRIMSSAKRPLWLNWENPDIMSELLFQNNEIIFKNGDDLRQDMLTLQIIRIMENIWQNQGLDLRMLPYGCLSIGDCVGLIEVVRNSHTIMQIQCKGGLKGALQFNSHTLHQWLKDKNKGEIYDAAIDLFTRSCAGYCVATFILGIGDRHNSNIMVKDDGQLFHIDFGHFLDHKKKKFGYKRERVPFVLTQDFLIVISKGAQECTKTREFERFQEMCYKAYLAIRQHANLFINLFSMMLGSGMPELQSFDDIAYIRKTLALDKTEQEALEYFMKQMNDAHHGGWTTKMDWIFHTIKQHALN
T1 sequence (P27986 whole entry partner): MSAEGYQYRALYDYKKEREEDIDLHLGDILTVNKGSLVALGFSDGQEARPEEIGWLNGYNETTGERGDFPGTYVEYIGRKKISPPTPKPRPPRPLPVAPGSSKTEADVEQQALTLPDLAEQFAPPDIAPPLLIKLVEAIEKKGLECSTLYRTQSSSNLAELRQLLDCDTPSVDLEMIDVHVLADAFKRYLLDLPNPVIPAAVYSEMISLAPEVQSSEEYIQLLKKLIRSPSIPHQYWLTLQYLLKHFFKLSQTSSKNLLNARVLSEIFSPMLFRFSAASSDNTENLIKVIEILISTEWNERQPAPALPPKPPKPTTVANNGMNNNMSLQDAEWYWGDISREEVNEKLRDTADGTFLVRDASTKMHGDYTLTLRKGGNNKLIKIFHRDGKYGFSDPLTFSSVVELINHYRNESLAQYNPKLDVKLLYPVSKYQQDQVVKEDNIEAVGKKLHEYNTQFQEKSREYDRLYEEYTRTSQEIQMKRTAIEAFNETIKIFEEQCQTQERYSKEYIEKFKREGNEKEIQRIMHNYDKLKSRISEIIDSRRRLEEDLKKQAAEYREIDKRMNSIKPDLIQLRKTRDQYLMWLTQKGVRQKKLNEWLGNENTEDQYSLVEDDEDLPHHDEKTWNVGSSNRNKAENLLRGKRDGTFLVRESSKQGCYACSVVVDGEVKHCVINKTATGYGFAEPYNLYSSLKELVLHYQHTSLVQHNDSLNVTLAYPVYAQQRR

| SMILES | IC50 |
| --- | --- |
| CCOC(=O)N1CCc2nc3c(N4CCOCC4)nc(-c4cccc5[nH]ncc45)cn3c2C1 [2-03, 3-(1H-Indazol-4-yl)-1-morpholin-4-yl-7,8-dihydro-5H-2,4-a,6,9-tetraaza-fluorene-6-carboxylic acid ethyl ester] | > 1000 nM |
| c1cncc(CN2CCc3nc4c(N5CCOCC5)nc(-c5cccc6[nH]ncc56)cn4c3C2)c1 [2-05] | > 1000 nM |
| c1cc(-c2cn3c4c(nc3c(N3CCOCC3)n2)CCN(Cc2nccs2)C4)c2cn[nH]c2c1 [2-06] | > 1000 nM |
| c1cc(-c2cn3c4c(nc3c(N3CCOCC3)n2)CCN(CC2CCOCC2)C4)c2cn[nH]c2c1 [2-09] | > 1000 nM |
| CS(=O)(=O)c1ccc(CN2CCc3nc4c(N5CCOCC5)nc(-c5cccc6[nH]ncc56)cn4c3C2)cc1 [2-10] | > 1000 nM |
| c1cc(-c2cn3c4c(nc3c(N3CCOCC3)n2)CCN(Cc2ncc[nH]2)C4)c2cn[nH]c2c1 [2-13] | > 1000 nM |
| c1cc(-c2cn3c4c(nc3c(N3CCOCC3)n2)CCN(CC2CNC2)C4)c2cn[nH]c2c1 [2-14] | > 1000 nM |
| CCOC(=O)N1CCc2nc3c(N4CCOCC4)nc(-c4ccc(N)nc4)cn3c2C1 [2-21] | > 1000 nM |
| CCOC(=O)N1CCc2nc3c(N4CCOCC4)nc(-c4ccc5[nH]ccc5c4)cn3c2C1 [2-22] | > 1000 nM |
| CCOC(=O)N1CCc2nc3c(N4CCOCC4)nc(-c4cccnc4)cn3c2C1 [2-24] | > 1000 nM |
| CCOC(=O)N1CCc2nc3c(N4CCOCC4)nc(-c4cnc(N)c(C(F)(F)F)c4)cn3c2C1 [2-25] | > 1000 nM |
| CCOC(=O)N1CCc2nc3c(N4CCOCC4)nc(-c4c(F)ccc5[nH]ccc45)cn3c2C1 [2-26] | > 1000 nM |
| CCOC(=O)N1CCc2nc3c(N4CCOCC4)nc(-c4ccc5[nH]ccc5c4)c(Cl)n3c2C1 [2-29] | > 1000 nM |
| CCOC(=O)N1CCc2nc3c(N4CCOCC4)nc(-c4cncc(OC)c4)c(Cl)n3c2C1 [2-30] | > 1000 nM |
| CCOC(=O)N1CCc2nc3c(N4CCOCC4)nc(-c4cccnc4)c(Cl)n3c2C1 [2-31] | > 1000 nM |
| Nc1ncc(-c2cn3c4c(nc3c(N3CCOCC3)n2)CCN(CC2CCOCC2)C4)cn1 [2-36] | > 1000 nM |
| CCOC(=O)C1CCC(N2CCc3nc4c(N5CCOCC5)nc(-c5cnc(N)nc5)cn4c3C2)CC1 (centres unmarked) [2-40] | > 1000 nM |
| CCOC(=O)N1CCc2nc3c(N4CCOCC4)nc(-c4cncnc4)cn3c2C1 [2-41] | > 1000 nM |
| CC(C)NC(=O)N1CCc2nc3c(N4CCOCC4)nc(-c4cnc(N)nc4)cn3c2C1 [2-44] | < 500 nM |
| c1nc(NCC2CC2)ncc1-c1cn2c3c(nc2c(N2CCOCC2)n1)CCN(CC1CC1)C3 [2-47] | > 1000 nM |

Same assay, conditions: PI3Kα; quantitative results; read-out: PI3K α IC50

| SMILES | IC50 |
| --- | --- |
| CCOC(=O)N1CCc2nc3c(N4CCOCC4)nc(-c4cccc(O)c4)cn3c2C1 [2-01, 3-(3-Hydroxy-phenyl)-1-morpholin-4-yl-7,8-dihydro-5H-2,4-a,6,9-tetraaza-fluorene-6-carboxylic acid ethyl ester] | 207 nM |
| Oc1cccc(-c2cn3c4c(nc3c(N3CCOCC3)n2)CCNC4)c1 [2-02] | 185 nM |
| c1cc(-c2cn3c4c(nc3c(N3CCOCC3)n2)CCN(Cc2ccncc2)C4)c2cn[nH]c2c1 [2-07] | 852 nM |
| c1ccc(CN2CCc3nc4c(N5CCOCC5)nc(-c5cccc6[nH]ncc56)cn4c3C2)nc1 [2-08] | 439 nM |
| c1coc(CN2CCc3nc4c(N5CCOCC5)nc(-c5cccc6[nH]ncc56)cn4c3C2)c1 [2-11] | 1780 nM |
| c1cc(-c2cn3c4c(nc3c(N3CCOCC3)n2)CCN(Cc2ccoc2)C4)c2cn[nH]c2c1 [2-12] | 708 nM |
| CS(=O)(=O)c1cccc(CN2CCc3nc4c(N5CCOCC5)nc(-c5cccc6[nH]ncc56)cn4c3C2)c1 [2-15] | 3330 nM |
| CCOC(=O)N1CCc2nc3c(N4CCOCC4)nc(-c4cnc(OC)nc4)cn3c2C1 [2-19] | 724 nM |
| CCOC(=O)N1CCc2nc3c(N4CCOCC4)nc(-c4cnc5[nH]ccc5c4)cn3c2C1 [2-20] | 1050 nM |
| CCOC(=O)N1CCc2nc3c(N4CCOCC4)nc(-c4cncc(OC)c4)cn3c2C1 [2-23] | 2700 nM |
| CCOC(=O)N1CCc2nc3c(N4CCOCC4)nc(-c4cnc(OC)nc4)c(Cl)n3c2C1 [2-27] | 603 nM |
| CCOC(=O)N1CCc2nc3c(N4CCOCC4)nc(-c4cnc5[nH]ccc5c4)c(Cl)n3c2C1 [2-28] | 1070 nM |
| CCOC(=O)N1CCc2nc3c(N4CCOCC4)nc(-c4cnc(N)c(C(F)(F)F)c4)c(Cl)n3c2C1 [2-33] | 1780 nM |
| CC(C)CN1CCc2nc3c(N4CCOCC4)nc(-c4cnc(N)nc4)cn3c2C1 [2-35] | 692 nM |
| Nc1ncc(-c2cn3c4c(nc3c(N3CCOCC3)n2)CCN(CC2CCCCC2)C4)cn1 [2-37] | 363 nM |
| CC(C)C(=O)N1CCc2nc3c(N4CCOCC4)nc(-c4cnc(N)nc4)cn3c2C1 [2-43] | 550 nM |
| CCN1CCc2nc3c(N4CCOCC4)nc(-c4cnc(N)nc4)cn3c2C1 [2-45] | 257 nM |
| COC(=O)N1CCc2nc3c(N4CCOCC4)nc(-c4cnc(N)nc4)cn3c2C1 [2-48] | 100 nM |
| CCCNC(=O)N1CCc2nc3c(N4CCOCC4)nc(-c4cnc(N)nc4)c(Cl)n3c2C1 [2-54] | 148 nM |
| CCCCS(=O)(=O)N1CCc2nc3c(N4CCOCC4)nc(-c4cnc(N)nc4)cn3c2C1 [2-55] | 33 nM |
| Nc1ncc(-c2nc(N3CCOCC3)c3nc4c(n3c2Cl)CN(S(=O)(=O)c2ccccc2)CC4)cn1 [2-58] | 101 nM |
| N#CCCCS(=O)(=O)N1CCc2nc3c(N4CCOCC4)nc(-c4cnc(N)nc4)cn3c2C1 [2-77] | 19 nM |
| Nc1ncc(-c2cn3c4c(nc3c(N3CCOCC3)n2)CCN(CC2CCCC2)C4)cn1 [2-80] | 340 nM |
| Nc1ncc(-c2cn3c4c(nc3c(N3CCOCC3)n2)CCN(C2CCCCC2)C4)cn1 [2-81] | 238 nM |
| Nc1ncc(-c2cn3c4c(nc3c(N3CCOCC3)n2)CCN(Cc2ccnnc2)C4)cn1 [2-84] | 175 nM |
| CCCC(=O)N1CCc2nc3c(N4CCOCC4)nc(-c4cnc(N)nc4)cn3c2C1 [2-86] | 94 nM |
| COc1cccc(CN2CCc3nc4c(N5CCOCC5)nc(-c5cnc(N)nc5)cn4c3C2)c1 [2-95] | 240 nM |
| Nc1ncc(-c2cn3c4c(nc3c(N3CCOCC3)n2)CCN(Cc2ccc(OC(F)(F)F)cc2)C4)cn1 [2-100] | 310 nM |
| Nc1ncc(-c2cn3c4c(nc3c(N3CCOCC3)n2)CCN(Cc2ccncc2)C4)cn1 [2-107] | 125 nM |

Same assay, conditions: quantitative results; read-out: PI3K α IC50

| SMILES | IC50 |
| --- | --- |
| Nc1ncc(-c2cn3c4c(nc3c(N3CCOCC3)n2)CCN(S(=O)(=O)C2CNC2)C4)cn1 [2-110] | 7 nM |
| Nc1ncc(-c2cn3c4c(nc3c(N3CCOCC3)n2)CCN(Cc2nccs2)C4)cn1 [2-111] | 139 nM |
| Nc1ncc(-c2cn3c4c(nc3c(N3CCOCC3)n2)CCN(C(=O)Nc2cc(Cl)cc(Cl)c2)C4)cn1 [2-112] | 90 nM |
| N#Cc1cccc(NC(=O)N2CCc3nc4c(N5CCOCC5)nc(-c5cnc(N)nc5)cn4c3C2)c1 [2-113] | 81 nM |
| CS(=O)(=O)c1ccccc1CN1CCc2nc3c(N4CCOCC4)nc(-c4cnc(N)nc4)cn3c2C1 [2-117] | 37 nM |
| CC1(C)Cc2nc3c(N4CCOCC4)nc(-c4cnc(N)nc4)cn3c2C(O)C1 (centres unmarked) [5-05] | 661 nM |
| O=C1CCc2nc3c(N4CCOCC4)nc(-c4cccc(O)c4)cn3c2N1 [5-10] | 409 nM |
| CN(C)CCN1CCc2c(nc3c(N4CCOCC4)nc(-c4cnc(N)nc4)cn23)C1 [6-04] | 178 nM |
| Nc1ncc(-c2nc(N3CCOCC3)c3nc4c(n3c2Cl)CCN(Cc2ccc(F)cc2)C4)cn1 [6-12] | 290 nM |
| Nc1ncc(-c2cn3c4c(nc3c(N3CCOCC3)n2)CN(C(=O)C(F)(F)F)CC4)cn1 [6-14] | 23 nM |
